Assay results from patent publication US20130072506A1, “6,8-DISUBSTITUTED PURINE COMPOSITIONS” (priority 2011, published 2013).

Experiments:
excised wheat leaf tips = test: Senescence inhibition on winter wheat leaf segments (chlorophyll retention); format: in vivo, Triticum aestivum cv. Hereward; conditions: for Activity (%): at concentration with highest activity, activity of 10^−4 M kinetin set at 100%; for Concentration with highest activity: retention of chlorophyll in excised wheat leaf tips, 96 hours in the dark
Description: Senescence Inhibition by Novel Compounds Tested on Winter Wheat Leaf Segments. Seeds of winter wheat, Triticum aestivum cv. Hereward, were washed under running water for 24 hours and then sown on vermiculite soaked with Knop's solution. They were placed in the grown chamber at 25° C. with a 16/8 hours light period at […]·m^−2·s^−1. After 7 days, the first leaf was fully developed and the second leaf had started to grow. A tip section of the first leaf, approximately 35 mm long, was removed from 5 seedlings and trimmed slightly to a combined weight of 100 mg. The basal ends of the five leaf tips were placed in the wells of a microtiter polystyrene plate containing […] of a cytokinin solution each. The entire plate was inserted into a plastic box lined with paper tissues soaked in distilled water to prevent leaf sections from drying out. After 96 hours incubation in the dark at 25° C., the leaves were removed and chlorophyll extracted by heating at 80° C. for 10 min in 5 ml of 80% ethanol (v/v). The sample volume was then restored to 5 ml by the addition of 80% ethanol (v/v). The absorbance of the extract was recorded at 665 nm. In addition, chlorophyll extracts from fresh leaves and leaf tips incubated in deionized water were measured. The set up of the assay is shown on FIG. 1. From the obtained data, the concentration with highest activity was selected for each compound tested. Relative activity of the compound at this concentration was calculated (see Table 2 below). […] The values shown are means of five replicates and the whole experiment was repeated twice.
The compounds to be tested were dissolved in dimethylsulfoxide (DMSO) and the solution brought up to 10^−3 M with distilled water.

[1] = tested on: Amaranthus caudatus cotyledon/hypocotyl explants; test: Amaranthus bioassay (betacyanin content); format: in vivo, Amaranthus caudatus var. atropurpurea; conditions: for Activity (%): at concentration with highest activity, activity of kinetin set at 100%; for Concentration with highest activity: betacyanin content, 48 hours in darkness
Description: Testing of Novel Compounds in Amaranthus bioassay. Standard Amaranthus bioassay was performed with several modifications. The seeds of Amaranthus caudatus var. atropurpurea were surface-sterilized in 10% N-chlorobenzene sulfonamide (w/v) for 10 min and washed 5 times in deionized water. They were placed in 14 cm Petri dishes containing paper tissues saturated with deionized water. After 72 hours of cultivation at 25° C. in darkness, the roots of the seedlings were cut off. The explants, consisting of two cotyledons and hypocotyls, were placed in 5 cm Petri dishes on two layers of filter paper soaked in 1 ml of incubation medium containing 10 μmol Na2HPO4—KH2PO4, pH 6.8, 5 μmol tyrosine and the cytokinin to be tested. There were 20 explants per dish. The procedure was carried out under a green safe light in a darkroom. After a 48 hours of incubation at 25° C. in darkness, betacyanin was extracted by freezing the explants in 4 ml 3.33 μM acetic acid. The concentration of betacyanin was determined by comparing the absorbance at 537 nm and 620 nm as follows: DA=A537nm−A620nm. From the obtained data, the concentration with highest activity was selected for each compound tested. Relative activity of the compound at this concentration was calculated (see Table 3 below). […] The values shown in Table 3 are means of five replicates and the entire test was repeated twice.
The cytokinins to be tested were dissolved in dimethylsulfoxide (DMSO) and the solution brought up to 10^−3 M with distilled water.

[2] = tested on: cytokinin-dependent tobacco callus; test: Growth of cytokinin-dependent tobacco callus (plant cell division); format: cell-based, Nicotiana tabacum L. cv. Wisconsin 38; conditions: for Activity (%): at concentration with highest activity, activity of kinetin set at 100%
Description: The effect on plant cell division. Cytokinin-dependent tobacco callus Nicotiana tabacum L. cv. Wisconsin 38 was maintained at 25° C. in darkness on modified MS medium, containing 4 μmol/l nicotinic acid, 2.4 μmol/l pyridoxine hydrochloride, 1.2 μmol/l thiamine, 26.6 μmol/l glycine, 1.37 μmol/l glutamine, 1.8 μmol/1 myo-inositol, 30 g/l of sucrose, 8 g/l of agar, 5.37 μmol/l NAA and 0.5 μmol/l BAP. Subcultivation was carried out every three weeks. Fourteen days before the bioassay, the callus tissue was transferred to the media without BAP. Biological activity was determined from the increase in fresh callus weight after four weeks of cultivation. Five replicates were prepared for each cytokinin concentration and the entire test was repeated twice. From the obtained data, the concentration with highest activity was selected for each compound tested. Relative activity at this concentration was calculated (see Table 4 below).
The cytokinins to be tested were dissolved in dimethylsulfoxide (DMSO) and the solution brought up to 10^−3M with distilled water.

[3] = tested on: Human diploid fibroblast BJ; test: In vitro cytotoxic activity (metabolisation of MTT); format: cell-based; conditions: 72 hours, BJ passage 18-22
Outline: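 BJ human diploid fibroblasts (passage 18-22) exposed 72 h to compounds at 0-200 μM (top dose lowered if solubility-limited), pentaplicate. MTT 0.5 mg/ml final added for 3 h, formazan dissolved in DMSO, absorbance at 570 nm. GI20 (20% drop in mitochondrial dehydrogenase activity) taken from dose-response curves.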

[4] = tested on: T-lymphoblastic leukemia cell line CEM; test: In vitro cytotoxic activity (metabolisation of Calcein AM); format: cell-based, human; conditions: Homo sapiens, CCRF-CEM, CEM cells, 72 hours incubation, called GI50, read-out: Cell line tested/IC50 (μmol/L) CEM
Outline: (§1)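 Cells were pre-incubated 24 hours at 2.500-30.000 cells per well, then exposed to six 3-fold dilutions, usually from 100 μM top, for 72 hours at 37° C, 5% CO2, in triplicate. Calcein AM was added at 1 μg/ml final and fluorescence read after 1 hour; GI50 is the concentration halving Calcein AM conversion.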

[5] = tested on: breast carcinoma cell line MCF-7; test: as above; format: cell-based, human; conditions: Homo sapiens, MCF7 cells, 72 hours incubation, called GI50, read-out: Cell line tested/IC50 (μmol/L) MCF7
Outline: as §1

[6] = tested on: erytroid leukemia cell line K-562; test: as above; format: cell-based, human; conditions: Homo sapiens, K562, K-562 cells, 72 hours incubation, called GI50, read-out: Cell line tested/IC50 (μmol/L) K-562
Outline: as §1

melanoma cell line G-361 = test: as above; format: cell-based, human; conditions: Homo sapiens, G-361 cells, 72 hours incubation, called GI50, read-out: Cell line tested/IC50 (μmol/L) G-361
Outline: as §1

[7] = tested on: normal diploid fibroblasts BJ; test: as above; format: cell-based, human; conditions: Homo sapiens, BJ cells, 72 hours incubation, called GI50, read-out: Cell line tested/IC50 (μmol/L) BJ
Outline: as §1

[8] = tested on: osteosarcoma cell line HOS; test: as above; format: cell-based, human; conditions: Homo sapiens, HOS cells, 72 hours incubation, called GI50, read-out: Cell line tested/IC50 (μmol/L) HOS
Outline: as §1

SKH-1 hairless mice [9] = test: Hairless mouse assay: skin moisture content; format: in vivo; conditions: compared with the vehicle
Text: Evaluation of cutaneous effects of new topical compounds in the hirless mouse assay. The purpose of this study was to evaluate new topical compounds for their safety and efficacy as topical skin anti-aging treatments. The hairless mouse model is a well established model for studying the treatments of photoaging. […] The present study was used to investigate a new class of anti-aging compounds in comparison to classical ones. […] Topical compounds and vehicle controls were be applied daily (Monday-Friday) for 3 weeks to the dorsal skin of hairless mice. At baseline (prior to the 1st treatment), and weekly, the dorsal skin was measured for: transepidermal water loss (TEWL); skin moisture content; and skin elasticity.
(§2) Experimental Design. 48 female SKH-1 hairless mice (5 weeks old, 20-25 grams, Charles River Laboratories, Wilmington, Mass.) are individually housed in filter-top cages, and acclimated for 5-7 days after delivery. The mice are divided into 8 treatment groups (n=6), including two different control groups (untreated control, vehicle control) and a therapeutic control (tretinoin 0.05% Renova™ cream). Cage cards are marked to indicate treatment groups 1-8. Water and mouse chow are provided ad libitum.
Skin Moisture Content & Elasticity. The measurements of skin moisture content and skin elasticity are important noninvasive methods used to characterize the effects of moisturizers and anti-wrinkle effects on skin. A DermaLab™ combination instrument were used to measure the skin moisture content and elasticity of the target skin sites at baseline and at weekly intervals. This instrument is equipped with dual probes which are placed on the skin surface and a quantitative measurement taken of the respective parameters and the measurements recorded on an integrated computer. Mean measurements was determined for each treatment group over time, and comparative statistics used to evaluate product effectiveness.
(§3) Topical Treatments. Beginning on Treatment Day 1, test products are applied topically each morning (Monday through Friday) after erythema evaluations for 3 weeks. Using a positive displacement pipette, 20 mg of each agent is applied to a 2 cm×2 cm area of the center midline of the back. The material was spread across the treatment area with the pipette tip.

SKH-1 hairless mice [10] = test: Hairless mouse assay: epidermal bromodeoxyuridine (BrdU) staining; format: in vivo; conditions: epidermal BrdU staining after 3 weeks of topical treatment, 0.1% (tretinoin 0.05%)
Text: This study determined the effect of topical compound formulations on epidermal cell proliferation using bromodeoxyuridine as an immunohistochemical marker of cell proliferation. Histological examination of the treated and control skin were used to determine cutaneous effects of the topical compounds. Topical tretinoin 0.05% (Renova™) was used as a therapeutic control.
as §2, §3
Bromodeoxyuridine Injection. All animal groups are injected with bromodeoxyuridine (100 mg/kg) I.P. 4 hours after the final application. Animals are sacrificed by CO2 inhalation 3 hours later followed by cervical dislocation. The test sites are excised, and 6 mm punch biopsies are obtained from each treatment site, and from untreated controls. Biopsies are placed into labeled vials containing 4% neutral buffered formalin for paraffin embedding and anti-BrdU staining.
Bromodeoxyuridine Immunohistochemical Staining. Paraffin sections are cut to a […] thickness and stained using the BrdU Immuno-histochemistry kit (X1545K from Exalpha Biologicals, Inc.) and a standard staining protocol. The slides are weakly counterstained in Mayer's hematoxylin and scored under a light microscope for the number of BrdU-positive cells per mm of epidermis for each section. The data are expressed as mean BrdU-positive cells/mm for each treatment group. Differences in BrdU labeling in the treatment groups are statistically analyzed using the Students t-test. Representative photographs are taken of the histological sections of the BrdU-positive staining cells.

Structure (SMILES)	Activity (%) (excised wheat leaf tips)	Concentration with highest activity (excised wheat leaf tips)	Activity (%) [1] [%]	Concentration with highest activity [1]	Activity (%) [2] [%]	melting point [°C]	further results
c1coc(CNc2ncnc3[nH]cnc23)c1 [kinetin, reference compound]	100%	10^−4 mol/l	100	10^−5 mol/l	100	–	range of the optimal concentration ([2]; tobacco callus growth): sharp concentration optimum
Clc1nc2ncnc(NCc3ccccc3)c2[nH]1 [Compound 30, 6-Benzylamino-8-chloropurine]	124.81 (±1) %	10^−4 mol/l	–	–	157.51	–	GI20 [3]: >100 µmol/L
Brc1nc2ncnc(NCc3ccccc3)c2[nH]1 [Compound 2, 6-Benzylamino-8-bromopurine]	144.76 (±6) %	10^−4 mol/l	–	–	174.83	–	IC50 [4]: > 50 µmol/L; IC50 [5]: > 50 µmol/L; IC50 [6]: > 50 µmol/L; IC50 (melanoma cell line G-361): > 50 µmol/L; IC50 [7]: > 50 µmol/L; IC50 [8]: > 50 µmol/L; GI20 [3]: >50 µmol/L
CCOC(=O)c1nc2ncnc(NCc3ccccc3)c2[nH]1 [Compound 195, 6-Benzylamino-8-ethoxycarbonylpurine]	122.06 (±2) %	10^−4 mol/l	122.55	10^−4 mol/l	–	181 to 185	–
c1coc(CNc2ncnc3c2ncn3C2CCCCO2)c1 (stereo not drawn) [6-Furfurylamino-9-(2-tetrahydropyranyl)purine]	–	–	–	–	–	–	average moisture content (SKH-1 hairless mice [9]): higher than that of the vehicle; Mean Nuclei Stained (SKH-1 hairless mice [10]): 5.3 ± 4.2
C/C(=C\CNc1ncnc2[nH]cnc12)CO [Zeatin]	–	–	–	–	–	–	average moisture content (SKH-1 hairless mice [9]): higher than that of the vehicle; Mean Nuclei Stained (SKH-1 hairless mice [10]): 3.5 ± 3.4 mm
CN(C)c1nc2ncnc(NCc3ccccc3)c2[nH]1 [Compound 62, 6-Benzylamino-8-dimethylaminopurine]	106.13 (±1) %	10^−4 mol/l	–	–	165.64	217 to 219	–
Sc1nc2ncnc(NCc3ccccc3)c2[nH]1 [Compound 138, 6-Benzylamino-8-sulphanylpurine]	140.45 (±3) %	10^−4 mol/l	111.25	10^−4 mol/l	156.66	267 to 269	–
